Source: US9981928B2, “Aryl sulfide derivatives and aryl sulfoxide derivatives as acaricides and insecticides” (BAYER CROPSCIENCE AKTIENGESELLSCHAFT, priority 2013, dated 2018)
Where two headings read alike, the source gives them in different places.

Assays:
[1] = test system: greenhouse red spider mite (Tetranychus urticae); assay: Tetranychus urticae spray test, OP-resistant (TETRUR), bean leaf disks; assay type: in vivo; details: bean leaf disks, after 6 days; for pest or weed control at 500 g/ha: Tetranychus urticae, foliar, 144 h, read-out: efficacy in %
Method: Tetranychus urticae—Spray Test, OP-Resistant (TETRUR)
Solvent: 78.0 parts by weight of acetone
• 1.5 parts by weight of dimethylformamide Emulsifier: alkylaryl polyglycol ether
To produce a suitable preparation of active compound, 1 part by weight of active compound is dissolved using the stated parts by weight of solvent and made up with water containing an emulsifier concentration of 1000 ppm until the desired concentration is attained. To produce further test concentrations, the preparation is diluted with emulsifier-containing water.
disks of bean leaves (Phaseolus vulgaris) infested with all stages of the greenhouse red spider mite (Tetranychus urticae) are sprayed with an active compound preparation of the desired concentration.
After 6 days, the efficacy in % is determined. 100% means that all the spider mites have been killed; 0% means that none of the spider mites have been killed.

[2] = log P determination by HPLC on reversed-phase columns (C 18), analogously to OECD Guideline 117; assay type: physicochemical; details: for chromatographic logP: reversed-phase C18 HPLC column; for logP (HCOOH): LC-MS in the acidic range, pH 2.7, 0.1% aqueous formic acid / acetonitrile; for logP (HCOOH) / logP (neutral): HPLC reversed-phase C 18; for logP (neutral): LC-MS in the neutral range, pH 7.8, 0.001 molar aqueous ammonium hydrogencarbonate / acetonitrile
Method: The log P values were determined analogously to OECD Guideline 117 (EC Directive 92/69/EEC) by HPLC (high-performance liquid chromatography) using reversed-phase columns (C 18), by the following methods:
[a] The LC-MS determination in the acidic range was effected at pH 2.7 with 0.1% aqueous formic acid and acetonitrile (contains 0.1% formic acid) as eluents; linear gradient from 10% acetonitrile to 95% acetonitrile. log P^[a] is also referred to as log P(HCOOH). [b] LC-MS determination in the neutral range was effected at pH 7.8 with 0.001 molar aqueous ammonium hydrogencarbonate solution and acetonitrile as eluents; linear gradient from 10% acetonitrile to 95% acetonitrile. log P^[…] is also referred to as log P(neutral).

[3] = acidic range, pH 2.7, 0.1% aqueous formic acid and acetonitrile, read-out: log P[a] / log P(HCOOH)
[4] = neutral range, pH 7.8, 0.001 molar aqueous ammonium hydrogencarbonate and acetonitrile, read-out: log P[b] / log P(neutral)

## Cc1cc(F)c(N2CCNC2=O)cc1SCC(F)(F)F [Example 9, 1-{2-Fluoro-4-methyl-5-[(2,2,2-trifluoroethyl)sulfanyl]phenyl}imidazolidin-2-one]
[1]; application rate 500 g/ha
  pest or weed control at 500 g/ha: 90%
[2]; [3]
  chromatographic logP: 2.36
[2]; [4]
  chromatographic logP: 2.31

## Cc1cc(F)c(N2C(=O)CSC2=NCC(F)(F)F)cc1SCC(F)(F)F [Example 11, 3-{2-Fluoro-4-methyl-5-[(2,2,2-trifluoroethyl)sulfanyl]phenyl}-2-[(2,2,2-trifluoroethyl)imino]-1,3-thiazolidin-4-one]
[1]; application rate 500 g/ha
  pest or weed control at 500 g/ha: 90%
[2]; [3]
  chromatographic logP: 3.6
[2]; [4]
  chromatographic logP: 3.5

## Cc1cc(F)c(N2C(=O)N(C)C(C)(C)C2=O)cc1[S+]([O-])CC(F)(F)F (stereo not drawn) [Example 17, 3-{2-Fluoro-4-methyl-5-[(2,2,2-trifluoroethyl)sulfinyl]phenyl}-1,5,5-trimethylimidazolidine-2,4-dione]
[1]; application rate 500 g/ha
  pest or weed control at 500 g/ha: 100%
[2]; [3]
  chromatographic logP: 2.04
[2]; [4]
  chromatographic logP: 2.01

## Cc1cc(F)c(N2C(=O)N(C)C(C)(C)C2=O)cc1SCC(F)(F)F [Example 18, 3-{2-Fluoro-4-methyl-5-[(2,2,2-trifluoroethyl)sulfanyl]phenyl}-1,5,5-trimethylimidazolidine-2,4-dione]
[1]; application rate 500 g/ha
  pest or weed control at 500 g/ha: 100%
[2]; [3]
  chromatographic logP: 2.96
[2]; [4]
  chromatographic logP: 2.92

## Cc1cc(F)c(N2C(=O)CCC2=O)cc1SCC(F)(F)F [Example 19, 1-{2-Fluoro-4-methyl-5-[(2,2,2-trifluoroethyl)sulfanyl]phenyl}pyrrolidine-2,5-dione]
[1]; application rate 500 g/ha
  pest or weed control at 500 g/ha: 100%
[2]; [3]
  chromatographic logP: 2.52
[2]; [4]
  chromatographic logP: 2.45

## Cc1ccc(-n2c(=O)n(C)c(=O)n2C)cc1[S+]([O-])CC(F)(F)F (stereo not drawn) [Example 21, 1,4-Dimethyl-2-{4-methyl-3-[(2,2,2-trifluoroethyl)sulfinyl]phenyl}-1,2,4-triazolidine-3,5-dione]
[1]; application rate 500 g/ha
  pest or weed control at 500 g/ha: 100%
[2]; [3]
  chromatographic logP: 1.63
[2]; [4]
  chromatographic logP: 1.63

## Cn1c(=O)n(C)n(-c2ccc(Cl)c(SCC(F)(F)F)c2)c1=O [Example 31]
[1]; application rate 500 g/ha
  efficacy in %: 90%
[2]
  logP (HCOOH): 2.72
  logP (neutral): 2.69

## COc1ccc(-n2c(=O)n(C)c(=O)n2C)cc1[S+]([O-])CC(F)(F)F (stereo not drawn) [Example 32]
[1]; application rate 500 g/ha
  efficacy in %: 100%
[2]
  logP (HCOOH): 1.58
  logP (neutral): 1.54

## Cn1c(=O)n(C2CC2)c(=O)n1-c1ccc(Cl)c([S+]([O-])CC(F)(F)F)c1 (stereo not drawn) [Example 39]
[1]; application rate 500 g/ha
  efficacy in %: 100%
[2]
  logP (HCOOH): 2.20
  logP (neutral): 2.17

## Cn1c(=O)n(C2CC2)c(=O)n1-c1ccc(Cl)c(SCC(F)(F)F)c1 [Example 40]
[1]; application rate 500 g/ha
  efficacy in %: 100%
[2]
  logP (HCOOH): 3.04
  logP (neutral): 2.98

## Cn1c(=O)n(C2CC2)c(=O)n1-c1ccc(C#N)c([S+]([O-])CC(F)(F)F)c1 (stereo not drawn) [Example 43]
[1]; application rate 500 g/ha
  efficacy in %: 90%
[2]
  logP (HCOOH): 1.93
  logP (neutral): 1.90

## Cn1c(=O)n(C2CC2)c(=O)n1-c1ccc(Br)c(SCC(F)(F)F)c1 [Example 46]
[1]; application rate 500 g/ha
  efficacy in %: 100%
[2]
  logP (HCOOH): 3.11
  logP (neutral): 3.05

## C=CCn1c(=O)n(C2CC2)c(=O)n1-c1ccc(C)c([S+]([O-])CC(F)(F)F)c1 (stereo not drawn) [Example 49]
[1]; application rate 500 g/ha
  efficacy in %: 90%
[2]
  logP (HCOOH): 2.28
  logP (neutral): 2.24

## Cc1ccc(-n2c(=O)n(C3CC3)c(=O)n2CC(C)C)cc1[S+]([O-])CC(F)(F)F (stereo not drawn) [Example 50]
[1]; application rate 500 g/ha
  efficacy in %: 90%
[2]
  logP (HCOOH): 3.58
  logP (neutral): 3.47

## CCn1c(=O)n(C)c(=O)n1-c1ccc(C)c(SCC(F)(F)F)c1 [Example 51]
[1]; application rate 500 g/ha
  efficacy in %: 90%
[2]
  logP (HCOOH): 2.82
  logP (neutral): 2.83

## Cn1c(=O)n(C2CC2)c(=O)n1-c1ccc(C(F)(F)F)c(SCC(F)(F)F)c1 [Example 53]
[1]; application rate 500 g/ha
  efficacy in %: 100%
[2]
  logP (HCOOH): 3.33
  logP (neutral): 3.23

## Cc1cc(F)c(-n2[nH]c(=O)n(C)c2=O)cc1SCC(F)(F)F [Example 55]
[1]; application rate 500 g/ha
  efficacy in %: 90%
[2]
  logP (HCOOH): 2.09
  logP (neutral): 0.60

## Cc1ccc(-n2c(=O)n(C)c(=O)n2-c2ccc(C)c(SCC(F)(F)F)c2)cc1SCC(F)(F)F [Example 56]
[1]; application rate 500 g/ha
  efficacy in %: 90%
[2]
  logP (HCOOH): 4.34
  logP (neutral): 4.05

## C=CCn1c(=O)n(C)c(=O)n1-c1ccc(C)c(SCC(F)(F)F)c1 [Example 58]
[1]; application rate 500 g/ha
  efficacy in %: 100%
[2]
  logP (HCOOH): 3.03
  logP (neutral): 2.88

## C=CCn1c(=O)n(C)c(=O)n1-c1ccc(C)c([S+]([O-])CC(F)(F)F)c1 (stereo not drawn) [Example 59]
[1]; application rate 500 g/ha
  efficacy in %: 100%
[2]
  logP (HCOOH): 2.03
  logP (neutral): 2.00

## Cc1ccc(-n2c(=O)n(C)c(=O)n2C(C)C)cc1SCC(F)(F)F [Example 61]
[1]; application rate 500 g/ha
  efficacy in %: 90%
[2]
  logP (HCOOH): 3.33
  logP (neutral): 3.27

## Cc1cc(F)c(-n2c(=O)n(C)c(=O)n2C(C)C)cc1SCC(F)(F)F [Example 62]
[1]; application rate 500 g/ha
  efficacy in %: 90%
[2]
  logP (HCOOH): 3.29
  logP (neutral): 3.23

## Cc1ccc(-n2c(=O)n(C3CC3)c(=O)n2C(C)C)cc1SCC(F)(F)F [Example 63]
[1]; application rate 500 g/ha
  efficacy in %: 90%
[2]
  logP (HCOOH): 3.65
  logP (neutral): 3.57

## Cc1cc(F)c(-n2c(=O)n(C3CC3)c(=O)n2C(C)C)cc1[S+]([O-])CC(F)(F)F (stereo not drawn) [Example 64]
[1]; application rate 500 g/ha
  efficacy in %: 90%
[2]
  logP (HCOOH): 2.51
  logP (neutral): 2.45

## Cc1cc(F)c(-n2c(=O)n(C3CC3)c(=O)n2C(C)C)cc1SCC(F)(F)F [Example 65]
[1]; application rate 500 g/ha
  efficacy in %: 100%
[2]
  logP (HCOOH): 3.59
  logP (neutral): 3.51

## Cc1cc(F)c(-n2[nH]c(=O)n(C3CC3)c2=O)cc1SCC(F)(F)F [Example 66]
[1]; application rate 500 g/ha
  efficacy in %: 100%
[2]
  logP (HCOOH): 2.30
  logP (neutral): 0.69

## Cn1c(=O)n(C)n(-c2ccc(Br)c([S+]([O-])CC(F)(F)F)c2)c1=O (stereo not drawn) [Example 67]
[1]; application rate 500 g/ha
  efficacy in %: 100%
[2]
  logP (HCOOH): 2.05
  logP (neutral): 2.02

## Cn1c(=O)n(C)n(-c2ccc(Br)c(SCC(F)(F)F)c2)c1=O [Example 68]
[1]; application rate 500 g/ha
  efficacy in %: 100%
[2]
  logP (HCOOH): 2.83
  logP (neutral): 2.78

## Cn1c(=O)n(C2CC2)c(=O)n1-c1cc([S+]([O-])CC(F)(F)F)c(Br)cc1F (stereo not drawn) [Example 72]
[1]; application rate 500 g/ha
  efficacy in %: 90%
[2]
  logP (HCOOH): 2.24
  logP (neutral): 2.18

## Cc1cc(F)c(-n2c(=O)n(-c3cccc(C(F)(F)F)c3)c(=O)n2C)cc1SCC(F)(F)F [Example 76]
[1]; application rate 500 g/ha
  efficacy in %: 100%
[2]
  logP (HCOOH): 4.09
  logP (neutral): 3.94

## C=CCn1c(=O)n(-c2ccc(C)c(SCC(F)(F)F)c2)n(-c2ccc(C)c(SCC(F)(F)F)c2)c1=O [Example 79]
[1]; application rate 100 g/ha
  efficacy in %: 90%
[2]
  logP (HCOOH): 4.86
  logP (neutral): 4.67

## Cc1ccc(-n2c(=O)n(C)c(=O)n2-c2ccc(C)c([S+]([O-])CC(F)(F)F)c2)cc1[S+]([O-])CC(F)(F)F (stereo not drawn) [Example 82]
[1]; application rate 500 g/ha
  efficacy in %: 90%
[2]
  logP (HCOOH): 2.67
  logP (neutral): 2.61

## CCn1c(=O)[nH]n(-c2cc(SCC(F)(F)F)c(C)cc2F)c1=O [Example 85]
[1]; application rate 500 g/ha
  efficacy in %: 90%
[2]
  logP (HCOOH): 2.43
  logP (neutral): 0.86

## CCn1c(=O)n(-c2ccccc2)c(=O)n1-c1cc(SCC(F)(F)F)c(C)cc1F [Example 87, 1-Ethyl-2-{2-fluoro-4-methyl-5-[(2,2,2-trifluoroethyl)sulfanyl]phenyl}-4-phenyl-1,2,4-triazolidine-3,5-dione]
[1]; application rate 500 g/ha
  pest or weed control at 500 g/ha: 90%
[2]; [3]
  chromatographic logP: 3.71
[2]; [4]
  chromatographic logP: 3.69

## CCn1c(=O)n(C)n(-c2ccc(C)c([S+]([O-])CC(F)(F)F)c2)c1=O (stereo not drawn) [Example 89]
[1]; application rate 500 g/ha
  efficacy in %: 100%
[2]
  logP (HCOOH): 1.96
  logP (neutral): 1.91

## Cc1ccc(-n2c(=O)n(C3CC3)c(=O)n2Cc2ccccc2)cc1SCC(F)(F)F [Example 90]
[1]; application rate 500 g/ha
  efficacy in %: 100%
[2]
  logP (HCOOH): 3.81
  logP (neutral): 3.71

## Cc1cc(F)c(-n2c(=O)n(C(C)C)c(=O)n2C)cc1[S+]([O-])CC(F)(F)F (stereo not drawn) [Example 92]
[1]; application rate 500 g/ha
  efficacy in %: 100%
[2]
  logP (HCOOH): 2.27
  logP (neutral): 2.22

## Cc1cc(F)c(-n2c(=O)n(C(C)(C)C)c(=O)n2C)cc1SCC(F)(F)F [Example 94]
[1]; application rate 100 g/ha
  efficacy in %: 90%
[2]
  logP (HCOOH): 3.85
  logP (neutral): 3.82

## CCn1c(=O)n(C)c(=O)n1-c1cc(SCC(F)(F)F)c(C)cc1F [Example 97]
[1]; application rate 500 g/ha
  efficacy in %: 100%
[2]
  logP (HCOOH): 2.91
  logP (neutral): 2.83
